In patent US9593305B2, “Differentiation of pluripotent stem cells” (Janssen Biotech, Inc., priority 2008, dated 2017):

How the values were obtained:
[1] = test system: H1 human embryonic stem cells; assay: Single-cell monolayer assay with EGF/FGF4, serum free, no activin A (Example 10, Table 10); assay type: cell-based; details: No AA (without Wnt3a); FGF(100 ng/ml); EGF(100 ng/ml)
scid-beige mice = assay: Transplantation of differentiated cells under the kidney capsule, human C-peptide ELISA (Example 18); assay type: in vivo, mouse; details: 8-weeks post-transplant; cells treated in step 1 as named (compounds with GDF-8)
Protocol: Five to six-week-old male scid-beige mice (C.B-Igh-1 b1 GbmsTac-Prkdc^scid-Lyst^bgN7) were purchased from Taconic Farms. Mice were housed in microisolator cages with free access to sterilized food and water. In preparation for surgery, mice were identified by ear tagging, their body weight was measured, and their blood glucose was determined using a hand held glucometer (LifeScan; One Touch). On the day of surgery, mice were anesthetized with a mixture of isolflurane and oxygen, and the surgical site was shaved with small animal clippers. Mice were dosed with 0.1 mg·kg Buprenex subcutaneously pre-operatively. The surgical site was prepared with successive washes of 70% isopropyl alcohol, 10% povidone-iodide, and 70% isopropyl alcohol, and a left lateral incision was made through the skin and muscle layers. […]
Following transplantation, mice were weighed once per week and blood glucose was measured twice per week. […] Human C-peptide levels were determined using the Mercodia/ALPCO Diagnotics Ultrasensitive C-peptide ELISA according to the manufacturer's instructions.
ELISA results for human C-peptide are shown in FIG. 23 for mice transplanted with cells from each of the respective treatment groups. No circulating human C-peptide was detected at four weeks post-transplant for any mice receiving cells from any of the treatment groups.

[2] = test system: H1 human embryonic stem cells; assay: Step-wise differentiation, high content analysis of SOX17, PDX1, CDX2, insulin, glucagon (Example 12); assay type: cell-based
Protocol: The assay was initiated by aspirating the culture medium from each well and adding back an aliquot (0.5 ml) of test medium. Test conditions for the first step of differentiation were conducted over a three-day period, feeding daily by aspirating and replacing the medium from each well with fresh test medium. On the first day of assay, 100 ng/ml activin A (PeproTech; Cat #120-14) or 200 ng/ml GDF-8 (R&D Systems, Cat #788-G8) was added to respective assay wells where each growth factor was diluted into RPMI-1640 medium (Invitrogen; Cat #22400) with 1% Albumin Bovine Fraction V, Fatty Acid Free (FAF BSA) (MP Biomedicals, Inc; Cat 152401), 1% Probumin (Millipore; Cat #81-068-3) and 20 ng/ml Wnt3a (R&D Systems; Cat #1324-WN/CF). On the second day of assay, 100 ng/ml activin A or 200 ng/ml GDF-8 was diluted into RPMI-1640 medium supplemented with 2% FAF BSA without Wnt3a. In some test samples using GDF-8, Wnt3a was replaced with a either Compound 34 or Compound 56 at a concentration of 2.5 μM, and either Compound 34 or Compound 56 was added daily during all three days of definitive endoderm differentiation. At the conclusion of the first step of differentiation, cells from some wells were harvested for flow cytometry analysis to evaluate levels of CXCR4, a marker of definitive endoderm formation. […]

Question: How did the “Sox17 Expression, Average Total Intensity” value [1] turn out when `O=C1CCN2CCN(CC2)Cc2cc(Cl)cc(c2)Nc2ncnc(n2)-c2cncc(c2)CCCN1` [Compound 34, 5-Chloro-1,8,10,12,16,22,26,32-octaazapentacyclo[24.2.2.1˜3.7˜0.1˜9,13˜0.1˜14.18˜]tritriaconta-3(33), 4,6,9(32), 10,12,14(31), 15,17-nonaen-23-one] was run?
Answer: Its value is 1.13E+08.

Question: Which “mice with detectable C-peptide” value (scid-beige mice) does the source give for `C=CCN1CC(=O)NCCCc2cncc(c2)-c2ncnc(n2)Nc2cccc(c2)C1` [Compound 40, 14-Prop-2-en-1-yl-3,5,7,14,17,23,27-heptaazatetracyclo[19.3.1.1˜2.6˜0.1˜8,12˜]heptacosa-1(25), 2(27), 3,5,8(26), 9,11,21,23-nonaen-16-one] here?
Answer: The value was “one of three mice”.

Question: Which “normalized protein levels of insulin and glucagon after step 5” value ([2]; GDF-8 versus activin A treatment groups in step 1) does the source give for “GDF-8: growth factor GDF-8, also known as myostatin, member of the TGF-β family” here?
Answer: The value was “equivalent expression between the Activin A and GDF-8 treatment groups”.

Question: And the “normalized Pdx1 and Cdx2 protein expression after step 3” value ([2]; GDF-8 with Wnt3a or with a compound in step 1)?
Answer: The value was “equivalent levels of PDX1 and CDX2”.
